Results published in patent US20250325467A1, “COMPOSITIONS FOR PREVENTING OR TREATING SKIN AGING” (ESTETRA SRL, priority 2021, published 2025).
Entries after “also recorded” stand apart in the source; their conditions may differ.

Legend:
[1] = system: mouse lymphoma cell line L5178Y TK^+/−; experiment: Generation of reactive oxygen species (ROS) in mouse lymphoma cells; type: cell-based; details: up to 100 μM; 3 h exposure; vs vehicle control
Description: The objective of the study was to investigate the generation of reactive oxygen species (ROS) induced by the test item, estetrol (E4), in a mouse lymphoma cell line L5178Y TK^+/−.
L5178Y TK^+/− cells in logarithmic phase of growth were plated in black 96 well cell culture plates at 1×10^4 cells in 90 μL of cell culture media. Controls and test item in triplicate were applied to the cells as a 10× concentrate in 10 μL of a 10% ethanol solution in PBS (final concentration of ethanol on plate was 1%). Cells were incubated for 3 hours at 37° C., 5% CO2, and the generation of ROS was evaluated by fluorescence with a ROS reagent: the ROS reagent was freshly prepared by dissolving one ampoule of reagent (50 μg) in 70 μL DMSO and further diluting this with 2.1 mL of pre-warmed PBS. 10 μL of ROS reagent was added to each well and the plate were shaken for 30 seconds in the dark. The plates were incubated approximately at 37° C., 5% CO2 for 1 h 30 min and fluorescence was read on a plate scanner with excitation at 492 nm and emission at 520 nm.

[2] = system: Normal Human Dermal Fibroblasts (NHDFs); experiment: Colonization of a standard acellular area (IBIDI chamber gap closure) by fibroblasts; type: cell-based; details: for NHDF Proliferation & Migration (colonization of the acellular area): absence of MMC, 6 h and 24 h; for colonized area, NHDF, positive reference: 10 ng/ml
Description: (§1) The study consists in an in vitro assay aiming to evaluate the properties of E4 and E2 at 4 concentrations each on keratinocytes and fibroblasts. In this assay, the measurement of the colonization of a standard acellular surface generated from a confluent monolayer of cells using a dedicated culture device (IBIDI chamber) is performed. The assay is performed in absence and in presence of a proliferation inhibitor to focus on cell proliferation and migration or on migration only, respectively.
Normal Human forskin-derived Dermal Fibroblats (NHDFs, ATCC) cells were grown in phenol-free Dulbecco's Modified Eagle Medium (DMEM, ThermoFisher Scientific) supplemented with 10% of Foetal Bovine Serum (FBS, ThermoFisher Scientific), L-glutamine and antibiotics. The cells were maintained in a humidified incubator at 37° C. with a 5% CO2 atmosphere.
(§2) Cells were plated in 2-well silicone inserts with a defined cell free gap (IBIDI chambers; IBIDI GmbH, 80209) that was previously inserted on 12-well culture plates. This culture device allows to create a standardized 500 μm±100 μm cell free gap for monitoring cell colonization. 24 h after seeding, when the culture reached high confluency, cells in the insert were treated, or not, with mitomycin C (MMC) at 10 μg/ml during 2 h. After these 2 hours, the insert was removed, and cells were treated with E2 or E4 in presence or not of MMC for additional 2 h. Then, if appropriate, the culture medium was removed and cells were treated with E2 or E4 for 22 h, in absence of MMC.
(§3) For the assay, keratinocytes were plated in Epilife medium without HKGS and all the treatments were performed in this medium. Fibroblasts were plated in DMEM medium containing only 2,5% of FBS and the treatments were performed in absence of FBS.
(§4) E2 and E4 were applied at 4 concentrations each (10^−7M, 10^−8M, 10^−9M, 10^−10M). In parallel, cells were treated with a positive control (HKGS 1% for human keratinocytes and PDGF-BB at 10 ng/ml for human fibroblasts).
(§5) To monitor cell colonization and to evaluate the gap closure rate, pictures of the gap were taken after different times: at time 0 h, corresponding to the beginning of the treatment with E2 or E4 and to the removal of the culture insert, at time 6 h and at time 24 h (corresponding to the end of the treatments with E2 or E4). Pictures were taken with a microscope Zeiss (Axiover 25-10× objective) and with a camera Invenio2EIII (DeltaPix—Lux-Optic). The colonized areas were quantified from the pictures by the use of the WimAsis platform—WimScratch software. For each insert, 3 pictures were taken at each time. As each condition was performed in triplicates, it means a total of 9 pictures per condition and per time point of acquisition

[3] = system: Normal Human Epidermal Keratinocytes (NHEKs); experiment: Colonization of a standard acellular area (IBIDI chamber gap closure) by keratinocytes; type: cell-based; details: for colonization of the cell-free area by NHEK, overall: all four concentrations (10^−7M to 10^−10M), vs ethanol control
Description: as §1
The study was performed using cultures of Normal Human foreskin-derived Epidermal Keratinocytes (NHEKs, Lonza). The cells were grown in serum free Epilife medium (ThermoFisher Scientific) supplemented with Human Keratinocyte Growth Supplement (HKGS, ThermoFisher Scientific) and antibiotics. The cells were maintained in a humidified incubator at 37° C. with a 5% CO2 atmosphere.
as §2, §3, §4, §5

[4] = system: IL-6 release from NHEKs; experiment: PMA/A23187-induced IL-6 release from NHEKs (ELISA, normalized to viability); type: cell-based, human; details: E2, 3 concentrations assessed (not specified); 24 h
Description: The Normal Human foreskin-derived Epidermal Keratinocytes (NHEKs, Lonza, 00192906), isolated from foreskin of 3 Caucasian donors, were grown in Epilife medium (Fisher Scientific, M-EPI-500-A) supplemented with Human Keratinocyte Growth Supplement (HKGS, Fisher Scientific, S-001-5) and antibiotics (Gentamycin, Fisher Scientific, 15710-049). The cells were maintained in a humidified incubator at 37° C. with a 5% CO2 atmosphere.
E4 and E2, provided as powder, were dissolved in 100% ethanol at 0.1M. They were then further diluted in ethanol and in culture medium to reach the appropriate concentrations. […] Practically, stock solutions 1000-fold concentrated were prepared in 100% ethanol, aliquoted and stored at −20° C. until cell application.
In order to induce the release of IL-6, NHEKs were exposed for 24 h with phorbol myristate acetate (PMA) at 10 ng/mL, in combination with calcium ionophore A23187 (Sigma Aldrich, C5722) at 2 μM. The treatments with the test or reference items were performed simultaneously with the inflammatory challenge. […] E4 was applied at 10^−4, 10^−5, 10^−6, 10^−7 and 10^−8 M and E2 at 10^−5, 10^−6, 10^−7, 10^−8 and 10^−9 M EtOH at 0.1% was tested as solvent control. Dexamethasone at 10 μM was used as anti-inflammatory reference. At the end of 24 h treatment, supernatants were harvested and stored at −20° C., and cell viability assay was assessed by MTS (see section 5). The kinetics of the treatments is outlined in FIG. 12. All the treatments were performed in triplicates (n=3).
The quantification of the release of inflammatory markers was performed using specific ELISA kits, based on standard curves, according to supplier's specifications. The results were then normalized to the corresponding cell viability (obtained by MTS assay).
The supplier's reference of the kits used for IL-6 quantification is as follows: IL-6, BioTechne, D6050.
At the end of the treatments and culture media collection, the viability of the cells was evaluated using the MTS (3-(4,5-dimethythiazol-2-yl)-5-(3-carboxy-methoxyphenyl)-2-(4-sulfophenyl)-2H-tetrazolium) assay. The effects of the treatments were compared to the untreated control condition and to the solvent control (EtOH 0.1%). The viability data were used in order to normalize the quantities of released inflammatory mediators.
NHEKs were treated as described in the methodology section. The quantification of IL-6 by ELISA was performed from the collected supernatants, following the instructions of the kit provider. Only 3 concentrations of the test items (chosen in accordance with the Sponsor following the results of the viability assay) were assessed in the ELISA.

Molecule: OO [hydrogen peroxide, reference compound]
- levels of ROS (controls) [1]: tendency to increase the levels of ROS

Molecule: C[C@]12CC[C@@H]3c4ccc(O)cc4CC[C@H]3[C@@H]1CC[C@@H]2O [E2, 17β-estradiol, reference compound]
- NHDF Proliferation & Migration (colonization of the acellular area) ([2]; 10^−7M, vs ethanol control): increased the colonization of the acellular area; also recorded: significant activity
- NHDF Proliferation & Migration (colonization of the acellular area) ([2]; 10^−8M, vs ethanol control): increased the colonization of the acellular area; also recorded: significant activity
- NHDF Proliferation & Migration (colonization of the acellular area) ([2]; 10^−10M, vs ethanol control): increased the colonization of the acellular area; also recorded: significant activity
- colonization of the cell-free gap by NHDF, overall ([2]; presence of MMC, all four concentrations (10^−7M to 10^−10M), vs ethanol control): not able to significantly increase the colonization of the cell-free gap
- effect on the gap closure by NHEK ([3]; 10^−7M to 10^−9 M, after 24 h of treatment, significant only for 10^−8M): inhibitor effect on the gap closure
- colonization of the cell-free area by NHEK, overall ([3]; absence of MMC): not able to significantly increase the colonization of the cell-free area; also recorded: no significant effect on keratinocyte proliferation or migration
- colonization of the cell-free area by NHEK, overall ([3]; presence of MMC): not able to significantly increase the colonization of the cell-free area; also recorded: no significant effect on keratinocyte proliferation or migration
- PMA/A23187-induced IL-6 release [4]: unaffected; also recorded: not observed

B1: PDGF-BB: positive control at 10 ng/ml for human fibroblasts (protein, UniProt P01127 82-190, looked up)
Platelet-derived growth …: SLGSLTIAEPAMIAECKTRTEVFEISRRLIDRTNANFLVWPPCVEVQRCSGCCNNRNVQCRPTQVQLRPVQVRKIEIVRKKPIFKKATVTLEDHLACKCETVAAARPVT
- colonized area, NHDF, positive reference ([2]; in absence of MMC): significantly increases the colonized area
- colonized area, NHDF, positive reference ([2]; in presence of MMC): significantly increases the colonized area
